This note sets out measurements from patent publication US20150045387A1, “Bi-Aromatic And Tri-Aromatic Compounds As NADPH Oxidase 2 (Nox2) Inhibitors” (The University of Surrey, priority 2011, published 2015).

Each structure is given as a SMILES string.

Experiment [1] deals with Differentiate human neutrophils (HL-60 cells). As to the kind of experiment: PMA-stimulated O2.- production by differentiated human neutrophils, lucigenin-chemiluminescence. It is filed as cell-based. The conditions noted are these: HL-60 neutrophils, PMA 100 ng/ml for 5 min. On the procedure: (§1) A) Differentiate human neutrophils (HL-60 cells, 5×10^4 cells/well) were stimulated with PMA (100 ng/ml) for 5 min in the presence or absence of LMH036 at the dose indicated. O2.^− production was measured by lucigenin-chemiluminescence. B) HPMEC were stimulated with TNFα (100 U/ml) for 45 min. Cells were immediately frozen in liquid nitrogen and homogenised. Cell homogenates (0.1 mg/well) were pre-incubated with LMH036 at the indicated dose for 5 min and measured for the O2.^− production in the presence of NADPH (100 μM) by lucigenin-chemiluminescence.
HL-60 is a human promyelocytic leukaemia cell line. […]
(§2) O2^− production by different cell types was measured using lucigenin (5 μM)-chemiluminescence. A microplate luminometer (LumiStar, BMG) was used, which allows the examination of 96 samples at the same time with kinetic reading facilities. […] Dark-adapted lucigenin (5 μM) was added into the well through an auto-dispenser located in the dark chamber just before reading. The light emission was recorded over a 60 minute period and expressed as arbitrary MLU measured by the illuminometer. Each experiment was performed in triplicate and the mean of 3 blank readings was subtracted from each corrected value for each reading. […]

The subject of another experiment is HPMEC. The experiment can be described thus: NADPH-dependent O2.- production by homogenates of TNFα-stimulated HPMEC, lucigenin-chemiluminescence. Format: cell-based, human. The conditions noted are these: HPMEC stimulated with TNFα 100 U/ml 45 min, homogenates 0.1 mg/well, NADPH 100 μM. On the procedure:
as §1, §2
O2^− production was also studied using total cell homogenate (for the endothelial cells and the fibroblasts). […] Soluble protein concentration was determined using a kit from Bio-Rad Laboratories Ltd. (Hertfordshire, U.K.). […]

As for `OCc1cc(-c2ncc(-c3cccc(O)c3O)o2)ccc1O` [LMH036, 3-(2-(4-hydroxy-3-(hydroxymethyl)phenyl)oxazol-5-yl)benzene-1,2-diol], the “O2.- production by human cells” value (in experiment [1]; with HPMEC) was “inhibitory effect” each time.
